# From ChEMBL document CHEMBL6153034, “Synthesis of dolutegravir derivatives modified by 1,2,3-triazole structure and their anti-inflammatory activity in LPS-induced BV2 cells” (Bioorg Med Chem Lett, 2025)
# Key:
# [1] = system: Human immunodeficiency virus 1; test: Antiviral activity against HIV-1 infected in human C8166 cells assessed as inhibition of virus-induced cytopathic effect; format: functional, organism-based; settings: Human immunodeficiency virus 1, C8166
# [2] = system: RAW264.7; test: Antiinflammatory activity in LPS-induced mouse RAW264.7 cells assessed as inhibition of NO production; format: functional, cell-based
# [3] = system: BV-2; test: Antiinflammatory activity in LPS-induced mouse BV-2 cells assessed as reduction in NO release relative to control; format: functional; set-up: scale not given: the % may be the effect or the level left
# [4] = system: BV-2; test: Antiinflammatory activity in LPS induced mouse BV-2 cells assessed as NO production at 10 uM by Griess reagent based assay relative to control
# [5] = Cytotoxicity against mouse BV-2 cells assessed as cell viability at 1 uM by MTT assay relative to control; format: toxicity, cell-based; settings: read-out: Activity
# [6] = system: BV-2; test: Antiinflammatory activity in LPS induced mouse BV-2 cells assessed as inhibition of NO production by Griess reagent based assay; format: functional, cell-based
# [7] = Cytotoxicity against mouse BV-2 cells assessed as cell viability at 10 uM by MTT assay relative to control; format: toxicity, cell-based; settings: read-out: Activity
# [8] = system: BV-2; test: Antiinflammatory activity in LPS induced mouse BV-2 cells assessed as NO production at 1 uM by Griess reagent based assay relative to control
# [9] = system: Human immunodeficiency virus 1; test: Antiviral activity against HIV-1; format: functional, organism-based
EC50 [1] [µM],IC50 [2] [µM],IC50 [6] [µM],EC50 [9] [µM],SMILES,Activity [3] [%],"level, % of control at 10 µM [4] [%]",viability at 1 µM [5] [%],viability at 10 µM [7] [%],"level, % of control at 1 µM [8] [%]"
< 10,< 10,–,–,C=CC(C)(C)c1cc2cc([C@@H](O)[C@@H](O)C(C)(C)O)c(O)cc2oc1=O,–,–,–,–,–
–,–,–,–,CC(=O)Oc1ccc2c(=O)c(-c3ccc(-n4cc(-c5ccc6c(c5)C(=O)N5CCCC5C(=O)N6)nn4)cc3)coc2c1 (stereo not drawn),64.28,–,–,–,–
–,–,9.68,–,COc1c2n(cc(C(=O)Nc3cccc(-c4cn(-c5c(C)cc(C)cc5C)nn4)c3)c1=O)C[C@@H]1OCC[C@@H](C)N1C2=O,–,46,102,96.7,85.1
–,< 10,–,< 10,Cc1ccc([C@@](C)(O)CC[C@@H](O)C(C)(C)O)cc1,–,–,–,–,–
–,–,–,–,CCc1ccccc1-n1cc(-c2ccc(NC(=O)c3cn4c(c(OC)c3=O)C(=O)N3[C@H](C)CCO[C@H]3C4)cc2)nn1,–,60.2,110,123,118
–,–,–,–,COc1c2n(cc(C(=O)Nc3ccc(-c4cn(-c5ccccc5C(F)(F)F)nn4)cc3)c1=O)C[C@@H]1OCC[C@@H](C)N1C2=O,–,91.1,103,103,109
–,–,–,–,COc1c2n(cc(C(=O)Nc3cccc(-c4cn(-c5ccc(C(F)(F)F)cc5)nn4)c3)c1=O)C[C@H]1OC[C@H](C)N1C2=O,–,101,108,63.3,102
–,–,–,–,COc1c2n(cc(C(=O)Nc3cccc(-c4cn(-c5ccc(C(F)(F)F)cc5)nn4)c3)c1=O)C[C@@H]1OCC[C@@H](C)N1C2=O,–,48.3,71.5,56.3,83.7
–,–,–,–,COc1c2n(cc(C(=O)Nc3cccc(-c4cn(-c5ccccc5C(F)(F)F)nn4)c3)c1=O)C[C@H]1OC[C@H](C)N1C2=O,–,82.3,97.4,42.9,103
–,–,5.03,–,COc1c2n(cc(C(=O)Nc3cccc(-c4cn(-c5ccccc5I)nn4)c3)c1=O)C[C@@H]1OCC[C@@H](C)N1C2=O,–,52.1,96.4,89.2,78.4
–,–,11,–,COc1ccccc1-n1cc(-c2cccc(NC(=O)c3cn4c(c(OC)c3=O)C(=O)N3[C@H](C)CCO[C@H]3C4)c2)nn1,–,48.6,109,76.8,76
–,–,–,–,COc1c2n(cc(C(=O)Nc3cccc(-c4cn(-c5cc(C(F)(F)F)cc(C(F)(F)F)c5)nn4)c3)c1=O)C[C@H]1OC[C@H](C)N1C2=O,–,97.9,97.1,69.6,114
–,–,–,–,COc1ccccc1-n1cc(-c2cccc(NC(=O)c3cn4c(c(OC)c3=O)C(=O)N3[C@@H](C)CO[C@@H]3C4)c2)nn1,–,68,94.1,50.4,96.5
